What is called EC50 is the concentration that produces a half-maximal response.

The test system of one test is Candida albicans UP10. Type of test: cell-based. The following applies: for Anti-Candida activity (%) at 100 µg/mL: C7/pc42 H2 alanine-substituted derivatives, 37°C, 6 h, CFU assay, triplicate; for EC50: UP10, 6 h; for EC50asd/EC50H2: anti-Candida EC50 of the derivative relative to C7/pc42 H2.
Test [1] concerns B16F10-Nex2 murine melanoma cells. Type of test: cell-based. The conditions noted are these: for EC50: 12 h.
Procedure: Each peptide was tested in triplicate. After 12 h, the cytotoxic activities of the peptides were determined by measuring cell viability by Trypan Blue exclusion.

Where a SMILES comes first, the peptide text is derived from it.

Procedure for Candida albicans UP10: The alanine substituted derivatives (asd), defined according to the position held by the alanine-substituted aminoacid, were tested in the same biological assays to critically establish the functional relevance of each residue [5]. In vitro microbicidal activity of CDR peptides and selected asd against C. albicans UP 10 (clinical isolate from the fungi collection of the University of Parma) and C. albicans NCPF 3153 (National Collection of Pathogenic Fungi, Bristol, UK) were used for the in vitro experiments.
The microbicidal activity of synthetic CDRs against C. albicans strains was preliminarily evaluated by testing 100 µg/mL of each synthetic peptide by colony forming unit (CFU) assays as previously described [5]. Briefly, 10 µL of a distilled water suspension containing ∼5×10^4/mL germinating yeast cells were added to 90 µL of distilled water containing the synthetic peptide to be tested. Yeast suspensions were incubated at 37°C for 6 h. After incubation, the cell suspensions were plated on Sabouraud dextrose agar, incubated at 30°C and observed for CFU determination after 48–72 hours. Each assay was carried out in triplicate. […] EC50 was calculated by nonlinear regression analysis using Graph Pad Prism 4.01 software, San Diego, CA, USA.

With `CC[C@H](C)[C@H](NC(=O)[C@@H](N)Cc1ccc(O)cc1)C(=O)N[C@@H](CO)C(=O)N[C@@H](C)C(=O)N[C@@H](Cc1ccc(O)cc1)C(=O)N[C@@H](CC(N)=O)C(=O)NCC(=O)N[C@@H](C)C(=O)N[C@H](C(=O)N[C@@H](CO)C(=O)N[C@@H](Cc1ccc(O)cc1)C(=O)N[C@@H](CC(N)=O)C(=O)N[C@@H](CCC(N)=O)C(=O)N[C@@H](CCCCN)C(=O)N[C@@H](Cc1ccccc1)C(=O)N[C@@H](CCCCN)C(=O)O)[C@@H](C)O` [C4A] (H-YISAYNGATSYNQKFK-OH; N-terminus and C-terminus assumed), in the test on Candida albicans UP10, the “Anti-Candida activity (%) at 100 µg/mL” value is 94.51%, the response was half-maximal at 8.23 µM (EC50) and the EC50asd/EC50H2 stood at 1.96. Also, the EC50 in test [1] is 67.5 µM.
`CC(C)C[C@H](NC(=O)[C@H](CC(C)C)NC(=O)[C@H](CO)NC(=O)[C@H](CCC(N)=O)NC(=O)[C@H](CO)NC(=O)[C@H](CO)NC(=O)[C@@H](N)CCCCN)C(=O)N[C@@H](CC(N)=O)C(=O)N[C@@H](CO)C(=O)NCC(=O)N[C@@H](CC(N)=O)C(=O)N[C@@H](CCC(N)=O)C(=O)N[C@@H](CCCCN)C(=O)N[C@@H](CC(N)=O)C(=O)N[C@@H](Cc1ccc(O)cc1)C(=O)N[C@@H](CC(C)C)C(=O)N[C@H](C(=O)O)[C@@H](C)O` [C7 L1] (H-KSSQSLLNSGNQKNYLT-OH) came in with an EC50 in the test with Candida albicans UP10 of 15.2 µM.
Still for that read-out and setting: then `N=C(N)NCCC[C@H](NC(=O)[C@H](CO)NC(=O)[C@H](CCCNC(=N)N)NC(=O)[C@@H]1CCCN1C(=O)[C@H](Cc1ccc(O)cc1)NC(=O)[C@H](CO)NC(=O)[C@H](Cc1ccc(O)cc1)NC(=O)[C@H](CC(=O)O)NC(=O)[C@@H](N)CC(N)=O)C(=O)O` [C7 L3] (H-NDYSYPRSR-OH), with 20.2 µM.
Consider `CC[C@H](C)[C@H](NC(=O)[C@@H](N)Cc1ccc(O)cc1)C(=O)N[C@@H](CO)C(=O)N[C@@H](CS)C(=O)N[C@@H](Cc1ccc(O)cc1)C(=O)N[C@@H](CC(N)=O)C(=O)NCC(=O)N[C@@H](C)C(=O)N[C@H](C(=O)N[C@@H](CO)C(=O)N[C@@H](Cc1ccc(O)cc1)C(=O)N[C@@H](CC(N)=O)C(=O)N[C@@H](CCC(N)=O)C(=O)N[C@@H](CCCCN)C(=O)N[C@@H](C)C(=O)N[C@@H](CCCCN)C(=O)O)[C@@H](C)O` [F15A] (H-YISCYNGATSYNQKAK-OH; N-terminus and C-terminus assumed), for which, in the test on Candida albicans UP10, the “Anti-Candida activity (%) at 100 µg/mL” value is on record as 100.00%, the EC50 was found to be 0.904 µM and the EC50asd/EC50H2 is 0.22. In addition, in test [1], the response was half-maximal at 1000 µM (EC50).
Taken in the same sequence, the figures for `CC[C@H](C)[C@H](NC(=O)[C@@H](N)Cc1ccc(O)cc1)C(=O)N[C@@H](CO)C(=O)N[C@@H](CS)C(=O)N[C@@H](Cc1ccc(O)cc1)C(=O)N[C@@H](CC(N)=O)C(=O)N[C@@H](C)C(=O)N[C@@H](C)C(=O)N[C@H](C(=O)N[C@@H](CO)C(=O)N[C@@H](Cc1ccc(O)cc1)C(=O)N[C@@H](CC(N)=O)C(=O)N[C@@H](CCC(N)=O)C(=O)N[C@@H](CCCCN)C(=O)N[C@@H](Cc1ccccc1)C(=O)N[C@@H](CCCCN)C(=O)O)[C@@H](C)O` [G7A] (H-YISCYNAATSYNQKFK-OH; N-terminus and C-terminus assumed) were 100.00%, 7.31 µM, 1.74 and 63.2 µM.
`N=C(N)NCCC[C@H](NC(=O)[C@H](CCC(N)=O)NC(=O)[C@@H](N)CCC(N)=O)C(=O)N[C@@H](CO)C(=O)N[C@@H](CC(N)=O)C(=O)N[C@@H](Cc1c[nH]c2ccccc12)C(=O)N1CCC[C@H]1C(=O)N[C@@H](CCCNC(=N)N)C(=O)N[C@@H](CO)C(=O)O` [HuA L3] (H-QQRSNWPRS-OH) returned an EC50 in the test on Candida albicans UP10 of 5.11 µM.
For the compound `C[C@H](NC(=O)CNC(=O)[C@H](CC(N)=O)NC(=O)[C@H](Cc1ccc(O)cc1)NC(=O)[C@H](CS)NC(=O)[C@H](CO)NC(=O)[C@H](C)NC(=O)[C@@H](N)Cc1ccc(O)cc1)C(=O)N[C@H](C(=O)N[C@@H](CO)C(=O)N[C@@H](Cc1ccc(O)cc1)C(=O)N[C@@H](CC(N)=O)C(=O)N[C@@H](CCC(N)=O)C(=O)N[C@@H](CCCCN)C(=O)N[C@@H](Cc1ccccc1)C(=O)N[C@@H](CCCCN)C(=O)O)[C@@H](C)O` [I2A] (H-YASCYNGATSYNQKFK-OH; N-terminus and C-terminus assumed), in the test with Candida albicans UP10, the “Anti-Candida activity (%) at 100 µg/mL” value is recorded as 99.77%, the EC50 came out at 6.25 µM and the EC50asd/EC50H2 was found to be 1.49. In addition, the response in test [1] was half-maximal at 73.5 µM (EC50).
The like results for `CC[C@H](C)[C@H](NC(=O)[C@@H](N)Cc1ccc(O)cc1)C(=O)N[C@@H](CO)C(=O)N[C@@H](CS)C(=O)N[C@@H](Cc1ccc(O)cc1)C(=O)N[C@@H](CC(N)=O)C(=O)NCC(=O)N[C@@H](C)C(=O)N[C@H](C(=O)N[C@@H](CO)C(=O)N[C@@H](Cc1ccc(O)cc1)C(=O)N[C@@H](CC(N)=O)C(=O)N[C@@H](CCC(N)=O)C(=O)N[C@@H](C)C(=O)N[C@@H](Cc1ccccc1)C(=O)N[C@@H](CCCCN)C(=O)O)[C@@H](C)O` [K14A] (H-YISCYNGATSYNQAFK-OH; N-terminus and C-terminus assumed) were, in that order, 91.72%, 18.5 µM, 4.41 and 384 µM.
For the compound `CC[C@H](C)[C@H](NC(=O)[C@@H](N)Cc1ccc(O)cc1)C(=O)N[C@@H](CO)C(=O)N[C@@H](CS)C(=O)N[C@@H](Cc1ccc(O)cc1)C(=O)N[C@@H](CC(N)=O)C(=O)NCC(=O)N[C@@H](C)C(=O)N[C@H](C(=O)N[C@@H](CO)C(=O)N[C@@H](Cc1ccc(O)cc1)C(=O)N[C@@H](CC(N)=O)C(=O)N[C@@H](CCC(N)=O)C(=O)N[C@@H](CCCCN)C(=O)N[C@@H](Cc1ccccc1)C(=O)N[C@@H](C)C(=O)O)[C@@H](C)O` [K16A] (H-YISCYNGATSYNQKFA-OH; N-terminus and C-terminus assumed), in the test with Candida albicans UP10, the “Anti-Candida activity (%) at 100 µg/mL” value is on record as 0%, a half-maximal effect (EC50) was put at 161 µM and the EC50asd/EC50H2 amounted to 38.35. This compound displayed a 50% effective concentration (EC50) in test [1] of 87 µM.
In turn, `CSCC[C@H](NC(=O)[C@H](Cc1ccc(O)cc1)NC(=O)[C@H](CO)NC(=O)[C@H](Cc1ccc(O)cc1)NC(=O)CNC(=O)[C@H](CO)NC(=O)[C@@H](NC(=O)[C@H](CO)NC(=O)[C@@H](NC(=O)[C@H](CO)NC(=O)[C@H](CCCCN)NC(=O)[C@H](CO)NC(=O)[C@H](C)NC(=O)[C@H](CCCNC(=N)N)NC(=O)[C@@H](N)Cc1ccc(O)cc1)C(C)C)[C@@H](C)O)C(=O)N[C@@H](Cc1c[nH]cn1)C(=O)O` [pc42 L1] (H-YRASKSVSTSGYSYMH-OH) showed an EC50 in the test with Candida albicans UP10 of 0.78 µM.
The same measure, in the same setting: then `CC(C)C[C@H](NC(=O)[C@H](CC(N)=O)NC(=O)[C@H](CO)NC(=O)[C@@H](NC(=O)[C@@H](N)CC(C)C)C(C)C)C(=O)N[C@@H](CCC(=O)O)C(=O)N[C@@H](CO)C(=O)O` [pc42 L2] (H-LVSNLES-OH), with 12 µM.
In the case of “SYNQKFK [C-terminal peptide of C7/pc42 H2]”, the “apoptotic activity in melanoma cells” value in test [1] (data not shown) is reported as “not apoptotic by itself”.

For the origin of these results see article PMC2396520, “Antibody Complementarity-Determining Regions (CDRs) Can Display Differential Antimicrobial, Antiviral and Antitumor Activities” (PLoS ONE, 2008).
